Where a SMILES comes first, the peptide text is derived from it.
Key:
[1] = target: T1, recombinant human clusterin (Homo sapiens, UniProt P10909); assay: BIAcore SPR, CGEN-CL1 co-incubated with partner helix, binding to clusterin; settings: CGEN-CL1 and SEQ ID NO:5, 10 μM each, preincubated 30 minutes
T1 construct: purchased Biovendor RD172034100
Protocol: Peptide-protein interaction was analyzed using surface plasmon resonance. Analysis of the interaction between CGEN-CL1 [SEQ ID NO:1] and recombinant human clusterin (Biovendor, Modrice, Czech republic cat no: RD172034100) was conducted using the BIAcore biosensor (Pharmacia Biosensor, Uppsala, Sweden). Clusterin was immobilized directly to a CM5 sensor chip (2000 resonance units (RU)). Solution containing either 10 μM of CGEN-CL1 [SEQ ID NO:1] peptide or a mixture of CGEN-CL1 and its partner helix (SEQ ID NO:5), 10 μM each, preincubated for 30 minutes at room temperature, was injected to the BIAcore. As a background, the solutions were also injected onto an empty flow cell with no immobilized ligand and the binding levels achieved were subtracted. Data was analyzed using BIAevaluation software.

[2] = tested on: HT29 colorectal adenocarcinoma cells; assay: MTT assay, growth of HT29 cells treated with CGEN-CL1; assay type: cell-based
Protocol: CGEN-CL1 as synthesized in Example 1 was analyzed for its ability to induce growth arrest in various cancer cell lines, such as: breast cancer cell line MCF-7 (Adenocarcinoma, Breast, HTB-22, ATCC), PC3 (Adenocarcinoma, Prostate, CRL-1435, ATCC), A549 (carcinoma, Lung, CCL-185, ATCC), HT-29 (Colorectal Adenocarcinoma, Colon, HTB-38, ATCC) and SK-mel 5 (Melanoma, Skin, HTB70, ATCC).
HT29 cells were seeded at 10,000 cells per well in 150 μl of media (DMEM medium+5% FBS) in a 96 well plate.
CGEN-CL1 (1 mg dissolved in 2500 of Sodium bi-carbonate to a stock concentration of 4 mg/ml) was added to the wells in 500 of medium (final volume of 2000) as detailed in Table 2. The relative growth was normalized to controls where CGEN-CL1 was not added to wells.
(§1) 20 μl of MTT (3-(4,5-Dimethyl-2-thiazolyl)-2,5-diphenyl-2H-tetrazolium bromide) solution (Sigma Cat#M5655, lot#085k5322, 1 gr was dissolved in 200 ml H2O and filtered, giving a final concentration of 5 mg/ml) was added to each well and incubated for 4 hours at 37° C. after which the medium was vacuumed and 100 μl of DMSO was added to each well. Absorbance was measured in an ELISA reader at 492 nm.

[3] = tested on: MCF-7 breast cancer cell lines; assay: MTT assay, CGEN-CL1 and/or paclitaxel on MCF-7 cells; assay type: cell-based
Protocol: as §1
(§2) A549, PC3 and MCF7 cells were seeded at 6000, 8000 and 10,000 cells per well respectively in 150 μl of media (DMEM medium+5% FBS) in 96 well plates.
(§3) Paclitaxel (Sigma T7402, Lot. 036k1217, Mw 853.9, 5 mg dissolved in 585 μl DMSO to a stock concentration of 10 mM, stored at −20° C.) and/or CGEN-CL1 (1 mg dissolved in 250 μl of sodium bi-carbonate to a stock concentration of 4 mg/ml) were added to the wells in 25 μl of medium (final volume of 200 μl) as detailed in Table 3. The relative growth was normalized to controls where neither paclitaxel nor CGEN-CL1 was added to wells.
(§4) An MTT assay was performed as described above in Example 2.

[4] = tested on: prostate adenocarcinoma cell line PC3; assay: MTT assay, CGEN-CL1 and/or paclitaxel on PC3 cells; assay type: cell-based
Protocol: as §1, §2, §3, §4

[5] = tested on: A549 cells; assay: MTT viability assay of A549 cells, CGEN-CL1 pre-incubated with helix partner; assay type: cell-based, human; settings: 150 nM CGEN-CL1 pre-incubated 30 min with equimolar SEQ ID NO:5
Protocol: In order to evaluate whether the two computationally identified α-helices (CGEN-CL1 (SEQ ID NO: 1) and its helix partner (SEQ ID NO: 5)) bind to each other in the Clusterin protein, a co-incubation of the two peptides was analyzed for its ability to eliminate the biological activity of CGEN-CL1.
Pre-incubation for 30 minutes of 150 nM CGEN-CL1 peptide (SEQ ID NO:1) with an equimolar concentration of the helix partner (SEQ ID NO:5) was carried out at room temperature. CGEN-CL1 peptide (SEQ ID NO:1) alone, or the helix partner (SEQ ID NO:5) alone or the pre-incubated CGEN-CL1 peptide (SEQ ID NO:1) with helix partner (SEQ ID NO:5) were used for viability assay of A549 cells, using MTT assay as described in Example 2 herein.

[6] = tested on: PC3 cells; settings: MTT
Protocol: PC3 cells were seeded at 8000 cells per well in 150 μl of media (DMEM medium+5% FBS) in a 96 well plate.

[7] = tested on: A549 human non-small cell lung cancer cells; assay: In vivo A549 mouse xenograft model, CGEN-CL1 with paclitaxel; parameters: species or system Balb/c Nu/Nu female mice; settings: A549 tumor bearing BALB/c nu/nu mice; CGEN-CL1 sc daily around tumor + paclitaxel 15 mg/kg IP; vs paclitaxel and vehicle
Protocol: In order to test the in-vivo activity of CGEN-CL1, Balb/c Nu/Nu female mice (10 in each group) were inoculated with 5×10^6 A549 human non-small cell lung cancer cells. Treatment was initiated when tumors reached 400-500 mm^3. One group received 15 mg/kg of paclitaxell (IP once every three days) and CGEN-CL1 [SEQ ID NO:1] (daily injected sub-cutaneously (sc) at the surrounding of the tumor) whereas the second group received paclitaxel and saline (at the same dose and route of administration). Tumor volume was measured every three days.

T1 sequence (P10909 23-449): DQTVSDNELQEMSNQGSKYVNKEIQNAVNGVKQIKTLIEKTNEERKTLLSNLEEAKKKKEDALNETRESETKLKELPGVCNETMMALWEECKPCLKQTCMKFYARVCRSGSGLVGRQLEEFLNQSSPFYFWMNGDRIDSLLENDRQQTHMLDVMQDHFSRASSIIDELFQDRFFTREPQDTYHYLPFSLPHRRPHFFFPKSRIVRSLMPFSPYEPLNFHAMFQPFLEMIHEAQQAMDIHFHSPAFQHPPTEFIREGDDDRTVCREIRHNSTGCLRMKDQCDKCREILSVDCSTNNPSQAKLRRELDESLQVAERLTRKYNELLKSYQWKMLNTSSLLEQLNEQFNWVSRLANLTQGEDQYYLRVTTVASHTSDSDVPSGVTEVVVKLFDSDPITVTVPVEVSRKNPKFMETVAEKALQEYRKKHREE

Q: `CC[C@H](C)[C@H](NC(=O)[C@H](CCCNC(=N)N)NC(=O)[C@H](CC(=O)O)NC(=O)CNC(=O)[C@H](CC(N)=O)NC(=O)[C@H](CCSC)NC(=O)[C@H](Cc1c[nH]c2ccccc12)NC(=O)[C@H](Cc1ccccc1)NC(=O)[C@H](Cc1ccc(O)cc1)NC(=O)[C@H](Cc1ccccc1)NC(C)=O)C(=O)N[C@@H](CC(=O)O)C(=O)N[C@@H](CO)C(=O)N[C@@H](CC(C)C)C(=O)N[C@@H](CC(C)C)C(=O)N[C@@H](CCC(=O)O)C(=O)N[C@@H](CC(N)=O)C(=O)N[C@@H](CC(=O)O)C(=O)N[C@@H](CCCNC(=N)N)C(=O)N[C@@H](CCC(N)=O)C(=O)N[C@@H](CCC(N)=O)C(=O)N[C@H](C(N)=O)[C@@H](C)O` [CGEN-CL1] (Ac-FYFWMNGDRIDSLLENDRQQT-NH2) was tested. Which “binding of CGEN-CL1 to recombinant Clusterin after co-incubation with partner helix” value [1] did it give?
A: completely abolished the binding

Q: And the “growth inhibition as revealed by cellular viability” value [2]?
A: evoked growth inhibition

Q: What about the “Relative Growth” value ([3]; CGEN-CL1 7.1 nM + Paclitaxel 2.25 nM) of the same molecule?
A: 0.62

Q: What about the “Relative Growth” value ([3]; CGEN-CL1 7.1 nM + Paclitaxel 30.00 nM) of the same molecule?
A: 0.31

Q: What about the “Relative Growth” value ([3]; CGEN-CL1 7.1 nM alone) of the same molecule?
A: 0.68

Q: What about the “Relative Growth” value ([3]; CGEN-CL1 22.3 nM + Paclitaxel 2.25 nM) of the same molecule?
A: 0.53

Q: And the “Relative Growth” value ([3]; CGEN-CL1 22.3 nM + Paclitaxel 30.00 nM)?
A: 0.28

Q: What about the “Relative Growth” value ([3]; CGEN-CL1 22.3 nM alone) of the same molecule?
A: 0.61

Q: What about the “Relative Growth” value ([3]; CGEN-CL1 63.2 nM + Paclitaxel 2.25 nM) of the same molecule?
A: 0.46

Q: What about the “Relative Growth” value ([3]; CGEN-CL1 63.2 nM + Paclitaxel 30.00 nM) of the same molecule?
A: 0.24

Q: What about the “Relative Growth” value ([3]; CGEN-CL1 63.2 nM alone) of the same molecule?
A: 0.48

Q: And the “Relative Growth” value ([3]; CGEN-CL1 185.9 nM + Paclitaxel 2.25 nM)?
A: 0.45

Q: And the “Relative Growth” value ([3]; CGEN-CL1 185.9 nM + Paclitaxel 30.00 nM)?
A: 0.25

Q: What about the “Relative Growth” value ([3]; CGEN-CL1 185.9 nM alone) of the same molecule?
A: 0.49

Q: What about the “Relative Growth” value ([3]; CGEN-CL1 557.6 nM + Paclitaxel 2.25 nM) of the same molecule?
A: 0.42

Q: What about the “Relative Growth” value ([3]; CGEN-CL1 557.6 nM + Paclitaxel 30.00 nM) of the same molecule?
A: 0.23

Q: And the “Relative Growth” value ([3]; CGEN-CL1 557.6 nM alone)?
A: 0.46

Q: And the “effect of timing on cell growth” value ([3]; CGEN-CL1 added 24 hours after 30 nM paclitaxel vs concomitantly)?
A: need for lower concentrations of CGEN-CL1 to achieve the same effect

Q: What about the “effect on growth inhibition when given in combination” value ([3]; CGEN-CL1 and paclitaxel in combination) of the same molecule?
A: synergistic effect

Q: What about the “CGEN-CL1 concentration giving further inhibition of cell proliferation (as little as)” value ([3]; at 30 nM Paclitaxel) of the same molecule?
A: 7.1 nM

Q: And the “CGEN-CL1 concentration that sensitized cells to paclitaxel at sub-minimal doses (as little as)” value [4]?
A: 7 nM

Q: And the growth inhibition ([4]; 60 nM CGEN-CL1 combined with 5 nM paclitaxel)?
A: same growth inhibition rates as the growth inhibition achieved by 45 nM of paclitaxel alone

Q: What about the “growth inhibition relative to 45 nM of paclitaxel alone” value ([4]; 60 nM CGEN-CL1 combined with 45 nM paclitaxel) of the same molecule?
A: 1.5 fold

Q: And the “effect between CGEN-CL1 and paclitaxel” value ([4]; CGEN-CL1 at different concentrations with different doses of paclitaxel)?
A: synergistic effect

Q: What about the “biological effect (growth inhibition) of CGEN-CL1 in the presence of partner helix peptide” value [5] of the same molecule?
A: abolished

Q: And the “concentration evoking the maximal effect (as little as)” value [6]?
A: 15 nM

Q: And the “reduction in tumor volume” value [7]?
A: 25-30%

Reference: US8575107B2, “Clusterin derived peptide” (Compugen Ltd., priority 2008, dated 2013)
